Patent publication EP0908457B1, “3-(1,2-benzisothiazol- and isoxazol-5-Y1)-2,4(1H,3H)-pyrimidinedione or thione and 3-(1,2-benzisothiazol- and isoxazol-5-y1)-4(3H)-pyrimidinone or thione herbicidal agents” (BASF AKTIENGESELLSCHAFT, priority 1997, dated 1999)

Legend:
[1] = system: Echinochloa oryzoides (Ard.) Fritsch.; assay: Preemergence weed control under flooded paddy conditions, ECHORC (Watergrass (Calif.)); type: in vivo; settings: preemergence, flooded paddy, rated three to four weeks after treatment; on herbicidal effect rating, ECHORC: meaning of each grade not given here
Sagittaria pygmaea, L. = assay: Preemergence weed control under flooded paddy conditions, SAGPY (Arrowhead (Pygmaea)); type: in vivo; settings: preemergence, flooded paddy, rated three to four weeks after treatment; on herbicidal effect rating, SAGPY: meaning of each grade not given here
Cyperus iria = assay: Preemergence weed control under flooded paddy conditions, CYPIR (Rice Flatsedge); type: in vivo; settings: preemergence, flooded paddy, rated three to four weeks after treatment; on herbicidal effect rating, CYPIR: meaning of each grade not given here
[2] = system: Monochoria vaginalis, Presl.; assay: Preemergence weed control under flooded paddy conditions, MOOVA (Monochoria); type: in vivo; settings: preemergence, flooded paddy, rated three to four weeks after treatment; on herbicidal effect rating, MOOVA: meaning of each grade not given here
[3] = system: Oryza sativa, (L.) Tebonnet; assay: Rice tolerance to post-transplant applications under flooded paddy conditions (Example 187), ORYSAT (Rice, Tebonnet); settings: rated three to four weeks after treatment; on herbicidal effect rating ORYSAT: meaning of each grade not given here
[4] = system: Cyperus serotinus, Rottb.; assay: Preemergence weed control under flooded paddy conditions, CYPSE (Flatsedge); type: in vivo; settings: preemergence, rated three to four weeks after treatment; further: meaning of each grade not given here

Structure (SMILES)	herbicidal effect rating, ECHORC ([1]; 0.0313 kg/ha)	herbicidal effect rating, ECHORC ([1]; 0.0625 kg/ha)	herbicidal effect rating, ECHORC ([1]; 0.1250 kg/ha)	herbicidal effect rating, ECHORC ([1]; 0.2500 kg/ha)	herbicidal effect rating, ORYSAT (rice tolerance) ([3]; 0.0313 kg/ha)	herbicidal effect rating, ORYSAT (rice tolerance) ([3]; 0.0625 kg/ha)	herbicidal effect rating, ORYSAT (rice tolerance) ([3]; 0.1250 kg/ha)	herbicidal effect rating, ORYSAT (rice tolerance) ([3]; 0.2500 kg/ha)	herbicidal effect rating, ECHORC ([1]; Rate 0.0320 kg/ha)	herbicidal effect rating, ECHORC ([1]; Rate 0.0620 kg/ha)	herbicidal effect rating, ECHORC ([1]; Rate 0.1250 kg/ha)	herbicidal effect rating, ECHORC ([1]; Rate 0.2500 kg/ha)	herbicidal effect rating, SAGPY (Sagittaria pygmaea, L.; Rate 0.0320 kg/ha)	herbicidal effect rating, SAGPY (Sagittaria pygmaea, L.; Rate 0.0620 kg/ha)	herbicidal effect rating, SAGPY (Sagittaria pygmaea, L.; Rate 0.1250 kg/ha)	herbicidal effect rating, SAGPY (Sagittaria pygmaea, L.; Rate 0.2500 kg/ha)	herbicidal effect rating, CYPIR (Cyperus iria; Rate 0.0320 kg/ha)	herbicidal effect rating, CYPIR (Cyperus iria; Rate 0.0620 kg/ha)	herbicidal effect rating, CYPIR (Cyperus iria; Rate 0.1250 kg/ha)	herbicidal effect rating, CYPIR (Cyperus iria; Rate 0.2500 kg/ha)	further results
COC(=O)COCc1nsc2ccc(-n3c(=O)cc(C(F)(F)F)n(C)c3=O)cc12 [Example 292, Acetic acid, {{5-[3,6-dihydro-3-methyl-2,6-dioxo-4-(trifluoromethyl)-1(2H)-pyrimidinyl]-1,2-benzisothiazol-3-yl}methoxy}-, methyl ester]																					ECHORC herbicidal effect rating ([1]; Rate 0.0320 kg/ha): 0.0; ECHORC herbicidal effect rating ([1]; Rate 0.0620 kg/ha): 0.0; ECHORC herbicidal effect rating ([1]; Rate 0.1250 kg/ha): 0.0; ECHORC herbicidal effect rating ([1]; Rate 0.2500 kg/ha): 0.0; SAGPY herbicidal effect rating (Sagittaria pygmaea, L.; Rate 0.0320 kg/ha): 0.0; SAGPY herbicidal effect rating (Sagittaria pygmaea, L.; Rate 0.0620 kg/ha): 0.0; SAGPY herbicidal effect rating (Sagittaria pygmaea, L.; Rate 0.1250 kg/ha): 0.0; SAGPY herbicidal effect rating (Sagittaria pygmaea, L.; Rate 0.2500 kg/ha): 5.0; CYPIR herbicidal effect rating (Cyperus iria; Rate 0.0320 kg/ha): 9.0; CYPIR herbicidal effect rating (Cyperus iria; Rate 0.0620 kg/ha): 9.0; CYPIR herbicidal effect rating (Cyperus iria; Rate 0.1250 kg/ha): 9.0; CYPIR herbicidal effect rating (Cyperus iria; Rate 0.2500 kg/ha): 9.0; MOOVA herbicidal effect rating ([2]; Rate 0.0320 kg/ha): 9.0; MOOVA herbicidal effect rating ([2]; Rate 0.0620 kg/ha): 9.0; MOOVA herbicidal effect rating ([2]; Rate 0.1250 kg/ha): 9.0; MOOVA herbicidal effect rating ([2]; Rate 0.2500 kg/ha): 9.0; ORYSAT herbicidal effect rating ([3]; Rate 0.0320 kg/ha): 0.0; ORYSAT herbicidal effect rating ([3]; Rate 0.0620 kg/ha): 0.0; ORYSAT herbicidal effect rating ([3]; Rate 0.1250 kg/ha): 0.0; ORYSAT herbicidal effect rating ([3]; Rate 0.2500 kg/ha): 0.0
Cn1c(C(F)(F)F)cc(=O)n(-c2ccc3snc(Cl)c3c2)c1=O [Example 37, 3-(3-Chloro-1,2-benzisothiazol-5-yl)-1-methyl-6-(trifluoromethyl)-2,4(1H,3H)-pyrimidinedione]	4.0	7.0	8.0	9.0	0.0	1.0	1.0	1.0													
COc1ccc(O)c(-c2nsc3ccc(-n4c(=O)cc(C(F)(F)F)n(C)c4=O)cc23)c1 [Example 361, 2,4(1H,3H)-Pyrimidinedione, 3-[3-(2-hydroxy-5-methoxyphenyl)-1,2-benzisothiazol-5-yl]-1-methyl-6-(trifluoromethyl)-]									0.0	0.0	0.0	4.0	4.0	4.0	5.0	5.0	0.0	0.0	0.0	6.0	herbicidal effect rating, ECHORC ([1]; Rate 0.5000 kg/ha): 4.0; herbicidal effect rating, SAGPY (Sagittaria pygmaea, L.; Rate 0.5000 kg/ha): 5.0; herbicidal effect rating, CYPIR (Cyperus iria; Rate 0.5000 kg/ha): 6.0; herbicidal effect rating, MOOVA ([2]; Rate 0.0320 kg/ha): 9.0; herbicidal effect rating, MOOVA ([2]; Rate 0.0620 kg/ha): 9.0; herbicidal effect rating, MOOVA ([2]; Rate 0.1250 kg/ha): 9.0; herbicidal effect rating, MOOVA ([2]; Rate 0.2500 kg/ha): 9.0; herbicidal effect rating, MOOVA ([2]; Rate 0.5000 kg/ha): 9.0; herbicidal effect rating ORYSAT ([3]; Rate 0.0320 kg/ha): 0.0; herbicidal effect rating ORYSAT ([3]; Rate 0.0620 kg/ha): 0.0; herbicidal effect rating ORYSAT ([3]; Rate 0.1250 kg/ha): 4.0; herbicidal effect rating ORYSAT ([3]; Rate 0.2500 kg/ha): 5.0; herbicidal effect rating ORYSAT ([3]; Rate 0.5000 kg/ha): 3.0
Cn1c(C(F)(F)F)cc(=O)n(-c2ccc3snc(CP(=O)(O)O)c3c2)c1=O [Example 92, {{5-[3,6-Dihydro-3-methyl-2,6-dioxo-4-(trifluoromethyl)-1(2H)-pyrimidinyl]-1,2-benzisothiazol-3-yl}methyl}phosphonic acid]	4.0	6.0	9.0	9.0	3.0	5.0	6.0	6.0													
Cc1ccc(OCC(=O)OC2CCCC2)c(-c2nsc3ccc(-n4c(=O)cc(C(F)(F)F)n(C)c4=O)cc23)c1 [Example 84, Cyclopentyl {{2-{5-[3,6-dihydro-3-methyl-2,6-dioxo-4-(trifluoromethyl)-1(2H)-pyrimidinyl]-1,2-benzisothiazol-3-yl}-p-tolyl}oxy}acetate]	9.0	9.0	9.0	9.0	3.0	3.0	4.0	7.0													
Cc1ccc(OCC(=O)OC(C)C(C)(C)C)c(-c2nsc3ccc(-n4c(=O)cc(C(F)(F)F)n(C)c4=O)cc23)c1 (stereo not shown) [Example 85, 1,2,2-Trimethylpropyl {{2-{5-[3,6-dihydro-3-methyl-2,6-dioxo-4-(trifluoromethyl)-1(2H)-pyrimidinyl]-1,2-benzisothiazol-3-yl}-p-tolyl}oxy}acetate]	8.0	9.0	9.0	9.0	0.0	0.0	0.0	1.0													
Cn1c(C(F)(F)F)cc(=O)n(-c2ccc3snc(Br)c3c2)c1=O [Example 36, 3-(3-Bromo-1,2-benzisothiazol-5-yl)-1-methyl-6-(trifluoromethyl)-2,4(1H,3H)-pyrimidinedione]	0.0	0.0	0.0	0.0	1.0	1.0	1.0	1.0													
Cn1c(C(F)(F)F)cc(=O)n(-c2ccc3snc(COC(=O)Cc4ccccc4Cl)c3c2)c1=O [Example 402, 2,4(1H,3H)-Pyrimidinedione, 3-[3-(hydroxymethyl)-1,2-benzisothiazol-5-yl]-1-methyl-6-(trifluoromethyl)-, (o-chlorophenyl)acetate (ester)]									0.0	0.0	3.0	4.0	0.0	0.0	0.0	3.0	0.0	2.0	3.0	7.0	herbicidal effect rating, CYPSE ([4]; Rate 0.0620 kg/ha): 0.0; herbicidal effect rating, CYPSE ([4]; Rate 0.1250 kg/ha): 0.0; herbicidal effect rating, CYPSE ([4]; Rate 0.2500 kg/ha): 5.0; herbicidal effect rating, MOOVA ([2]; Rate 0.0320 kg/ha): 7.0; herbicidal effect rating, MOOVA ([2]; Rate 0.0620 kg/ha): 7.0; herbicidal effect rating, MOOVA ([2]; Rate 0.1250 kg/ha): 9.0; herbicidal effect rating, MOOVA ([2]; Rate 0.2500 kg/ha): 9.0
Cn1c(C(F)(F)F)cc(=O)n(-c2ccc3snc(COC(=O)Cc4ccc(Cl)cc4Cl)c3c2)c1=O [Example 401, 2,4(1H,3H)-Pyrimidinedione, 3-[3-(hydroxymethyl)-1,2-benzisothiazol-5-yl]-1-methyl-6-(trifluoromethyl)-, (2,4-dichlorophenyl)acetate (ester)]									0.0	0.0	2.0	6.0	0.0	0.0	2.0	3.0	3.0	4.0	5.0	6.0	herbicidal effect rating, CYPSE ([4]; Rate 0.0620 kg/ha): 0.0; herbicidal effect rating, CYPSE ([4]; Rate 0.1250 kg/ha): 0.0; herbicidal effect rating, CYPSE ([4]; Rate 0.2500 kg/ha): 3.0; herbicidal effect rating, MOOVA ([2]; Rate 0.0320 kg/ha): 6.0; herbicidal effect rating, MOOVA ([2]; Rate 0.0620 kg/ha): 7.0; herbicidal effect rating, MOOVA ([2]; Rate 0.1250 kg/ha): 7.0; herbicidal effect rating, MOOVA ([2]; Rate 0.2500 kg/ha): 9.0
Cn1c(C(F)(F)F)cc(=O)n(-c2ccc3snc(C(C#N)=CC4CCCC4)c3c2)c1=O [Example 607, 1,2-Benzisothiazole-3-acetonitrile, alpha(cyclopentylmethylene)-5-[3,6-dihydro-3-methyl-2,6-dioxo-4-(trifluoromethyl)-1(2H)-pyrimidinyl]-, (E)- and (Z)-]									4.0	7.0	9.0	9.0	0.0	0.0	0.0	3.0	0.0	2.0	5.0	5.0	herbicidal effect rating, CYPSE ([4]; Rate 0.0620 kg/ha): 0.0; herbicidal effect rating, CYPSE ([4]; Rate 0.1250 kg/ha): 0.0; herbicidal effect rating, CYPSE ([4]; Rate 0.2500 kg/ha): 0.0; herbicidal effect rating, MOOVA ([2]; Rate 0.0320 kg/ha): 6.0; herbicidal effect rating, MOOVA ([2]; Rate 0.0620 kg/ha): 7.0; herbicidal effect rating, MOOVA ([2]; Rate 0.1250 kg/ha): 9.0; herbicidal effect rating, MOOVA ([2]; Rate 0.2500 kg/ha): 9.0
